Source: the supplement of paper PMC10307832

Experiments:
Assay in all cases: relative viability (nuclei count vs DMSO), 5 days (fraction); higher = more cells survive
BMX-IN-1 + Alpelisib = compound: C=CC(=O)Nc1cc(-n2c(=O)ccc3cnc4ccc(-c5ccc(NS(C)(=O)=O)cc5)cc4c32)ccc1C [BMX-IN-1] + Cc1nc(NC(=O)N2CCC[C@H]2C(N)=O)sc1-c1ccnc(C(C)(C)C(F)(F)F)c1 [Alpelisib] (partner 2 µM)
How it was run: (§1)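 Lung cancer cell lines were pin-tool dosed in 1536-well plates on the day after seeding, with either a lone drug or a fixed anchor-drug dose plus five library-drug doses (not always all listed) in √10 steps. Nuclei were counted on 4× images after 5 days. Relative viability is the ratio of treated-well to vehicle-well nuclei counts, with each value a median of duplicate plates.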

BMX-IN-1 + Dasatinib = compound: C=CC(=O)Nc1cc(-n2c(=O)ccc3cnc4ccc(-c5ccc(NS(C)(=O)=O)cc5)cc4c32)ccc1C [BMX-IN-1] + Cc1nc(Nc2ncc(C(=O)Nc3c(C)cccc3Cl)s2)cc(N2CCN(CCO)CC2)n1 [Dasatinib] (partner 0.075 µM)
How it was run: as §1

Ibrutinib + Olaparib = compound: C=CC(=O)N1CCC[C@@H](n2nc(-c3ccc(Oc4ccccc4)cc3)c3c(N)ncnc32)C1 [Ibrutinib] + O=C(c1cc(Cc2n[nH]c(=O)c3ccccc23)ccc1F)N1CCN(C(=O)C2CC2)CC1 [Olaparib] (partner 8 µM)
How it was run: as §1

Ibrutinib + Linsitinib = compound: C=CC(=O)N1CCC[C@@H](n2nc(-c3ccc(Oc4ccccc4)cc3)c3c(N)ncnc32)C1 [Ibrutinib] + C[C@]1(O)C[C@@H](c2nc(-c3ccc4ccc(-c5ccccc5)nc4c3)c3c(N)nccn32)C1 [Linsitinib] (partner 1 µM)
How it was run: as §1

Cell Line | relative viability (BMX-IN-1 + Alpelisib; first compound 0.02 µM) | relative viability (BMX-IN-1 + Alpelisib; first compound 0.2 µM) | relative viability (BMX-IN-1 + Alpelisib; first compound 0.6325 µM) | relative viability (BMX-IN-1 + Alpelisib; first compound 2 µM) | relative viability (BMX-IN-1 + Dasatinib; first compound 0.02 µM) | relative viability (BMX-IN-1 + Dasatinib; first compound 0.2 µM) | relative viability (BMX-IN-1 + Dasatinib; first compound 0.6325 µM) | relative viability (BMX-IN-1 + Dasatinib; first compound 2 µM) | relative viability (Ibrutinib + Olaparib; first compound 0.005 µM) | relative viability (Ibrutinib + Olaparib; first compound 0.01581 µM) | relative viability (Ibrutinib + Olaparib; first compound 0.05 µM) | relative viability (Ibrutinib + Olaparib; first compound 0.1581 µM) | relative viability (Ibrutinib + Olaparib; first compound 0.5 µM) | relative viability (Ibrutinib + Linsitinib; first compound 0.005 µM) | relative viability (Ibrutinib + Linsitinib; first compound 0.01581 µM) | relative viability (Ibrutinib + Linsitinib; first compound 0.05 µM) | relative viability (Ibrutinib + Linsitinib; first compound 0.1581 µM) | relative viability (Ibrutinib + Linsitinib; first compound 0.5 µM)
SW 1573 | 0.913 | 0.882 | 0.8 | 0.798 | 0.531 | 0.63 | 0.456 | 0.528 | 0.57 | 0.401 | 0.51 | 0.456 | 0.485 | 0.732 | 0.761 | 0.925 | 0.814 | 0.809
NCI-H1666 | 1.03 | 1.02 | 1.13 | 1.08 | 0.905 | 0.839 | 0.94 | 0.845 | 0.844 | 0.672 | 0.772 | 0.694 | 0.703 | 0.86 | 0.628 | 0.615 | 0.955 | 0.422
NCI-H1993 | 0.811 | 0.752 | – | 0.668 | 0.659 | 0.703 | 0.479 | 0.634 | 0.849 | 0.939 | 1.36 | 1.15 | 0.836 | 0.738 | 0.698 | 0.694 | – | 0.647
HCC-366 | 0.704 | 0.575 | 0.412 | 0.354 | 0.907 | 0.741 | 0.618 | 0.71 | 0.401 | 0.33 | 0.357 | 0.403 | 0.381 | 0.634 | 0.614 | 0.662 | 0.51 | 0.614
EMC-BAC-2 | 0.891 | 0.873 | 0.783 | 0.625 | 0.348 | 0.345 | 0.326 | 0.353 | 0.505 | 0.52 | 0.56 | – | 0.562 | 0.777 | 0.703 | 0.637 | 0.795 | 0.586
NCI-H1975 | 0.714 | 0.686 | 0.664 | 0.592 | 0.362 | 0.382 | 0.457 | 0.38 | 0.886 | 0.775 | 0.688 | 0.802 | 0.482 | 0.916 | 0.834 | 0.844 | 0.985 | 0.503
NCI-H1944 | 0.858 | 0.931 | 0.921 | 0.798 | 0.203 | 0.188 | 0.222 | 0.206 | 0.411 | 0.404 | 0.413 | 0.387 | 0.359 | 1.05 | 1.01 | 1.23 | 1.05 | 0.568
NCI-H1395 | 1.07 | 1.05 | 1.15 | 0.962 | 0.408 | 0.579 | 0.462 | 0.391 | 0.475 | 0.472 | 0.469 | 0.468 | 0.449 | 1.16 | 0.968 | 0.995 | 1.45 | 1.13
NCI-H650 | 1.2 | 1.19 | 1.27 | 1.1 | 0.49 | 0.469 | 0.517 | 0.478 | 0.423 | 0.432 | 0.385 | 0.506 | 0.459 | – | 0.688 | – | 1.19 | 0.889
NCI-H1437 | 1.26 | 0.953 | 1.1 | 1.05 | 0.512 | 0.391 | 0.429 | 0.409 | 0.681 | 0.626 | 0.721 | 0.641 | 0.628 | 1.01 | 0.926 | 0.989 | 1.09 | 0.993
NCI-H2347 | 1.25 | 1.07 | 1.16 | 0.974 | 0.344 | 0.281 | 0.287 | 0.323 | 0.659 | 0.512 | 0.626 | 0.619 | 0.536 | – | 0.979 | 1.04 | 0.816 | 1.05
NCI-H520 | 1.26 | 0.922 | 0.873 | 0.753 | 0.222 | 0.263 | 0.239 | 0.224 | 0.417 | 0.334 | 0.377 | 0.298 | 0.35 | 0.928 | 0.76 | 0.971 | 1.03 | 0.883
COR-L23 | 0.95 | 0.962 | 0.926 | 0.921 | 0.523 | 0.544 | 0.594 | 0.528 | 0.398 | 0.31 | 0.363 | 0.385 | 0.327 | 1.16 | 0.867 | 0.973 | 0.986 | –
NCI-H2405 | 0.816 | 0.755 | 0.747 | 0.766 | 0.225 | 0.501 | 0.223 | 0.19 | 0.877 | 0.877 | – | – | 0.953 | 0.849 | 0.801 | 0.929 | – | 0.869
A-427 | 1.04 | 1.11 | 1.04 | 1.14 | 0.731 | 1.01 | 0.782 | 0.664 | 0.71 | 0.722 | 0.723 | – | 0.766 | 0.986 | 1.09 | 1.15 | 1.1 | 1.12
SK-LU-1 | 1 | 1.05 | 0.964 | 1.06 | 0.22 | 0.174 | 0.169 | 0.171 | 0.411 | 0.426 | 0.447 | 0.722 | 0.371 | 0.776 | 1.02 | 1.21 | 1.21 | 1.04
RERF-LC-KJ | 0.787 | 0.868 | 0.856 | 0.899 | 1.08 | 0.883 | 0.82 | 0.939 | 0.994 | 0.863 | 0.89 | 0.965 | 0.868 | 0.903 | 0.804 | 0.818 | 0.824 | 0.778
LXF-289 | 1.12 | 1.14 | 1.11 | 1.07 | 0.197 | 0.204 | 0.247 | 0.266 | 1.16 | 0.994 | 1.01 | 1.03 | 1.02 | 0.988 | 0.96 | 0.923 | 0.955 | 0.927
